Bounds are passed on as bounds.

Fms kinase, sequence (P07333 20-972): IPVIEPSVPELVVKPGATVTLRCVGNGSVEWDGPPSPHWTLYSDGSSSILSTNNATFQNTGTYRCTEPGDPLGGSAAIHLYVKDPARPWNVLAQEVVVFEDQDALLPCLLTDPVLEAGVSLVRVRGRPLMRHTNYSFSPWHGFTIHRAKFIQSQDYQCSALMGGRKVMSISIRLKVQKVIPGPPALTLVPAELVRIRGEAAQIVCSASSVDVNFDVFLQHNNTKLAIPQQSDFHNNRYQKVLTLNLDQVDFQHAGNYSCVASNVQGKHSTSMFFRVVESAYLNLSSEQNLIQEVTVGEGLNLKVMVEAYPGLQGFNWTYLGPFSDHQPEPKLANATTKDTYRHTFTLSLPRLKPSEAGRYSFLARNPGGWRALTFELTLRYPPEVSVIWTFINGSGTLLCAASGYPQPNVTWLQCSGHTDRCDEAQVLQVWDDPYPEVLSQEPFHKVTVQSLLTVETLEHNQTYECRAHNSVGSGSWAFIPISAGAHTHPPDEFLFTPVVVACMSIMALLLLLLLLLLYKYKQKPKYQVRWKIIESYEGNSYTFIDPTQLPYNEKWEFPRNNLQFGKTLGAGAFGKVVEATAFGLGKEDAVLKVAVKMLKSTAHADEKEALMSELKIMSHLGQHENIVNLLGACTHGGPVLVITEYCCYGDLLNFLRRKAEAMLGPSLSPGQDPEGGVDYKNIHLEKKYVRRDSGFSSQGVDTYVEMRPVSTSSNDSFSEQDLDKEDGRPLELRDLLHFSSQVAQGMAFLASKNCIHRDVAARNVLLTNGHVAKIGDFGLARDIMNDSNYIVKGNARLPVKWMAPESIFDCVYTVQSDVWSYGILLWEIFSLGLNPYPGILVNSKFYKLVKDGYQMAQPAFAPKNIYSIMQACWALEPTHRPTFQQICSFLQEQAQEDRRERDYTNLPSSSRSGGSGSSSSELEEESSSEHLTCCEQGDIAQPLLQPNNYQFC

This experiment has as its target Fms kinase (Homo sapiens, UniProt P07333). Briefly: Fms kinase biochemical activity assay (AlphaScreen, biotin-(E4Y)10 phosphorylation). Conditions: 100 μM ATP; read-out: Biochemical Inhibition IC50 Fms. In short, it runs like this:
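AlphaScreen read-out (PY20 acceptor, streptavidin donor beads, EDTA stop) of biotin-(E4Y)10 phosphorylation, with IC50 taken from the concentration–signal curve. Reaction: 30 nM substrate, 100 μM ATP, 1 ng/well Fms, Hepes pH 7.5 with Mg2+/Mn2+, 5% DMSO, 20 min at 30 °C.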
Background: Alpha assays give light when donor and acceptor beads are brought close together.
Usually IC50 stands for the concentration needed to halve the response being measured. For the compound `Clc1cnc2[nH]cc(Cc3cnc(NC4CCCC4)nc3)c2c1` [Compound P-3003, [5-(5-Chloro-1H-pyrrolo[2,3-b]pyridin-3-ylmethyl)-pyrimidin-2-yl]-cyclopentyl-amine], the half-maximal inhibitory concentration (IC50) was less than 1000 nM.

Regarding `Clc1cnc2[nH]cc(Cc3cnc(NC4CC4)nc3)c2c1` [Compound P-3005, [5-(5-Chloro-1H-pyrrolo[2,3-b]pyridin-3-ylmethyl)-pyrimidin-2-yl]-cyclopropyl-amine], the half-inhibitory concentration (IC50) was less than 1000 nM.

Regarding `COc1ccccc1Nc1ncc(Cc2c[nH]c3ncc(Cl)cc23)cn1` [Compound P-3016, [5-(5-Chloro-1H-pyrrolo[2,3-b]pyridin-3-ylmethyl)-pyrimidin-2-yl]-(2-methoxy-phenyl)-amine], the IC50 was less than 100 nM.

For the compound `Fc1cccc(Nc2ncc(Cc3c[nH]c4ncc(Cl)cc34)cn2)c1` [Compound P-3017, [5-(5-Chloro-1H-pyrrolo[2,3-b]pyridin-3-ylmethyl)-pyrimidin-2-yl]-(3-fluoro-phenyl)-amine], the IC50 is less than 100 nM.

In the case of `COc1ccc(Nc2ncc(Cc3c[nH]c4ncc(C)cc34)cn2)cn1` [Compound P-3020, (6-Methoxy-pyridin-3-yl)-[5-(5-methyl-1H-pyrrolo[2,3-b]pyridin-3-ylmethyl)-pyrimidin-2-yl]-amine], the IC50 was less than 10 nM.

Turning to `COc1ccc(Nc2ncc(Cc3c[nH]c4ncc(C)cc34)cn2)cc1` [Compound P-3021, (4-Methoxy-phenyl)-[5-(5-methyl-1H-pyrrolo[2,3-b]pyridin-3-ylmethyl)-pyrimidin-2-yl]-amine], the IC50 is less than 10 nM.

On to `COc1cc(Nc2ncc(Cc3c[nH]c4ncc(C)cc34)cn2)ccc1F` [Compound P-3022, (4-Fluoro-3-methoxy-phenyl)-[5-(5-methyl-1H-pyrrolo[2,3-b]pyridin-3-ylmethyl)-pyrimidin-2-yl]-amine], for which the IC50 was less than 100 nM.

As to `COc1ccc(Nc2ncc(Cc3c[nH]c4ncc(C)cc34)cn2)cc1F` [Compound P-3023, (3-Fluoro-4-methoxy-phenyl)-[5-(5-methyl-1H-pyrrolo[2,3-b]pyridin-3-ylmethyl)-pyrimidin-2-yl]-amine], the IC50 was less than 100 nM.

With `CCCOc1ccc(Nc2ncc(Cc3c[nH]c4ncc(C)cc34)cn2)cc1` [Compound P-3024, [5-(5-Methyl-1H-pyrrolo[2,3-b]pyridin-3-ylmethyl)-pyrimidin-2-yl]-(4-propoxy-phenyl)-amine], the IC50 is less than 100 nM.

On to `CCc1ccc(Nc2ncc(Cc3c[nH]c4ncc(C)cc34)cn2)cc1` [Compound P-3025, (4-Ethyl-phenyl)-[5-(5-methyl-1H-pyrrolo[2,3-b]pyridin-3-ylmethyl)-pyrimidin-2-yl]-amine], for which the IC50 is less than 100 nM.

Consider `CCOc1ccc(Nc2ncc(Cc3c[nH]c4ncc(C)cc34)cn2)cc1` [Compound P-3026, (4-Ethoxy-phenyl)-[5-(5-methyl-1H-pyrrolo[2,3-b]pyridin-3-ylmethyl)-pyrimidin-2-yl]-amine], for which the half-maximal inhibitory concentration (IC50) was less than 10 nM.

In the case of `CCOc1ccc(Nc2ncc(Cc3c[nH]c4ncc(C)cc34)cn2)cn1` [Compound P-3027, (6-Ethoxy-pyridin-3-yl)-[5-(5-methyl-1H-pyrrolo[2,3-b]pyridin-3-ylmethyl)-pyrimidin-2-yl]-amine], the IC50 was less than 10 nM.

Regarding `Cc1cnc2[nH]cc(Cc3cnc(Nc4cc(-c5ccc(F)cc5)n[nH]4)nc3)c2c1` [Compound P-3028, [5-(4-Fluoro-phenyl)-2H-pyrazol-3-yl]-[5-(5-methyl-1H-pyrrolo[2,3-b]pyridin-3-ylmethyl)-pyrimidin-2-yl]-amine], the concentration for half-maximal inhibition (IC50) is more than 1000 nM.

On to `Cc1cnc2[nH]cc(Cc3cnc(Nc4cc(C(C)(C)C)n[nH]4)nc3)c2c1` [Compound P-3029, (5-tert-Butyl-2H-pyrazol-3-yl)-[5-(5-methyl-1H-pyrrolo[2,3-b]pyridin-3-ylmethyl)-pyrimidin-2-yl]-amine], for which the IC50 was less than 100 nM.

Take `Cc1cnc2[nH]cc(Cc3cnc(Nc4ccc(C(C)(C)C)cc4)nc3)c2c1` [Compound P-3030, (4-tert-Butyl-phenyl)-[5-(5-methyl-1H-pyrrolo[2,3-b]pyridin-3-ylmethyl)-pyrimidin-2-yl]-amine amine]: the IC50 was less than 100 nM.

On to `Cc1cnc2[nH]cc(Cc3cnc(Nc4ccc(C(O)(C(F)(F)F)C(F)(F)F)cc4)nc3)c2c1` [Compound P-3031, 1,1,1,3,3,3-Hexafluoro-2-{4-[5-(5-methyl-1H-pyrrolo[2,3-b]pyridin-3-ylmethyl)-pyrimidin-2-ylamino]-phenyl}-propan-2-ol], for which the 50% inhibitory concentration (IC50) was less than 1000 nM.

On to `Cc1cnc2[nH]cc(Cc3cnc(Nc4cc(C5CC5)n[nH]4)nc3)c2c1` [Compound P-3032, (5-Cyclopropyl-2H-pyrazol-3-yl)-[5-(5-methyl-1H-pyrrolo[2,3-b]pyridin-3-ylmethyl)-pyrimidin-2-yl]-amine], for which the IC50 was more than 1000 nM.

Turning to `CSc1ccc(Nc2ncc(Cc3c[nH]c4ncc(C)cc34)cn2)cc1` [Compound P-3033, [5-(5-Methyl-1H-pyrrolo[2,3-b]pyridin-3-ylmethyl)-pyrimidin-2-yl]-(4-methylsulfanyl-phenyl)-amine], the IC50 is less than 100 nM.

Turning to `Cc1cnc2[nH]cc(Cc3cnc(Nc4ccc(S(C)(=O)=O)cc4)nc3)c2c1` [Compound P-3034, (4-Methanesulfonyl-phenyl)-[5-(5-methyl-1H-pyrrolo[2,3-b]pyridin-3-ylmethyl)-pyrimidin-2-yl]-amine], the half-maximal inhibitory concentration (IC50) is less than 100 nM.

Consider `CCn1ccc(Nc2ncc(Cc3c[nH]c4ncc(C)cc34)cn2)n1` [Compound P-3035, (1-Ethyl-1H-pyrazol-3-yl)-[5-(5-methyl-1H-pyrrolo[2,3-b]pyridin-3-ylmethyl)-pyrimidin-2-yl]-amine], for which the half-maximal inhibitory concentration (IC50) is less than 1000 nM.

Take `CCn1cc(Nc2ncc(Cc3c[nH]c4ncc(C)cc34)cn2)cn1` [Compound P-3036, (1-Ethyl-1H-pyrazol-4-yl)-[5-(5-methyl-1H-pyrrolo[2,3-b]pyridin-3-ylmethyl)-pyrimidin-2-yl]-amine]: the half-inhibitory concentration (IC50) was less than 10 nM.

Take `Cc1cnc2[nH]cc(Cc3cnc(Nc4cc(C(F)(F)F)n[nH]4)nc3)c2c1` [Compound P-3037, [5-(5-Methyl-1H-pyrrolo[2,3-b]pyridin-3-ylmethyl)-pyrimidin-2-yl]-(5-trifluoromethyl-2H-pyrazol-3-yl)-amine]: the half-inhibitory concentration (IC50) was more than 1000 nM.

As for `Cc1cnc2[nH]cc(Cc3cnc(Nc4cc(OC(C)C)n[nH]4)nc3)c2c1` [Compound P-3038, (5-Isopropoxy-2H-pyrazol-3-yl)-[5-(5-methyl-1H-pyrrolo[2,3-b]pyridin-3-ylmethyl)-pyrimidin-2-yl]-amine], the half-maximal inhibitory concentration (IC50) is less than 1000 nM.

In the case of `Cc1ccc(Nc2ccc(Cc3c[nH]c4ncc(Cl)cc34)c(F)n2)cn1` [Compound P-3042, [5-(5-Chloro-1H-pyrrolo[2,3-b]pyridin-3-ylmethyl)-6-fluoro-pyridin-2-yl]-(6-methyl-pyridin-3-yl)-amine], the IC50 is less than 10 nM.

For `CCOc1ccc(Nc2ccc(C(=O)c3c[nH]c4ncc(C)cc34)c(F)n2)cn1` [Compound P-3045, [6-(6-ethoxy-pyridin-3-ylamino)-2-fluoro-pyridin-3-yl]-(5-methyl-1H-pyrrolo[2,3-b]pyridin-3-yl)-methanone], the IC50 is less than 10 nM.

For `CCOc1ncnc2[nH]cc(Cc3ccc(Nc4ccc(Br)nc4)nc3F)c12` [Compound P-4020, (6-Bromo-pyridin-3-yl)-[5-(4-ethoxy-7H-pyrrolo[2,3-d]pyrimidin-5-ylmethyl)-6-fluoro-pyridin-2-yl]-amine], the IC50 was less than 10 nM.

For the origin of these results see patent publication US8901118B2, “Compounds and methods for kinase modulation, and indications therefor” (Plexxikon Inc., priority 2010, dated 2014).
